± gives the standard deviation of the averaged measurements.
Legend:
Test in all cases: level (log10 ratio to DMSO vehicle control); higher = higher biomarker level / cell amount than vehicle control
[1] = compound: C=C(C)C(=O)OCCC(F)(F)C(F)(F)C(F)(F)C(F)(F)C(F)(F)C(F)(F)F [6:2 Fluorotelomer methacrylate]; conditions: in DMSO
Summary of the method: (§1)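 Cytokine or activator stimulation followed a 1 h exposure of BioMAP Diversity Plus human primary cell co-cultures to test substances, with one well per endpoint and final DMSO under 0.1%. Incubation then ran 24 h, or 48 h for MyoF and 72 h for BT, or 6 d for secreted IgG. After ELISA, sulforhodamine B and Alamar Blue readouts, each well was divided by the mean of 8 same-plate DMSO wells, log10 transformed, and blinded duplicates were averaged.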

[2] = compound: C=CC(=O)OCC(F)(F)C(F)(F)C(F)(F)COC(=O)C=C [1H,1H,5H,5H-Perfluoro-1,5-pentanediol diacrylate]; conditions: 6700 nM; in DMSO
Summary of the method: as §1

[3] = compound: FC(F)(F)C(F)(F)C(F)(F)C(F)(F)C(F)(F)C(F)(F)C(F)(F)I [1-Iodopentadecafluoroheptane]; conditions: in DMSO
Summary of the method: as §1

Octafluoroadipamide = compound: NC(=O)C(F)(F)C(F)(F)C(F)(F)C(F)(F)C(N)=O [Octafluoroadipamide]; conditions: in DMSO
Summary of the method: as §1

[4] = compound: NS(=O)(=O)C(F)(F)C(F)(F)C(F)(F)C(F)(F)C(F)(F)C(F)(F)F [Perfluorohexanesulfonamide]; conditions: in DMSO
Summary of the method: as §1

[5] = compound: O=S(=O)(O)CCC(F)(F)C(F)(F)C(F)(F)C(F)(F)C(F)(F)C(F)(F)F [6:2 Fluorotelomer sulfonic acid]; conditions: in DMSO
Summary of the method: as §1

Test System | level (log10) ([1]; 6700 nM) | level (log10) ([1]; 20000 nM) | level (log10) ([1]; 60000 nM) | level (log10) [2] | level (log10) ([3]; 6700 nM) | level (log10) ([3]; 20000 nM) | level (log10) (Octafluoroadipamide; 6700 nM) | level (log10) (Octafluoroadipamide; 20000 nM) | level (log10) (Octafluoroadipamide; 60000 nM) | level (log10) ([4]; 6700 nM) | level (log10) ([4]; 20000 nM) | level (log10) ([4]; 60000 nM) | level (log10) ([5]; 6700 nM) | level (log10) ([5]; 20000 nM) | level (log10) ([5]; 60000 nM)
KF3CT:SRB | -0.005 ± 0.0085 | 0 | -0.001 ± 0.0057 | -0.01 ± 0.0085 | 0.0015 ± 0.0064 | 0.005 ± 0.0057 | 0.0015 ± 0.00071 | -0.004 ± 0.011 | 0.0125 ± 0.005 | 0 ± 0.0099 | -0.008 ± 0.0028 | -0.014 ± 0.0042 | -0.004 | 0.0005 ± 0.0035 | 0.006 ± 0.016
KF3CT:TIMP-2 | -0.0445 ± 0.0064 | 0.008 ± 0.013 | 0.022 ± 0.038 | -0.056 ± 0.021 | -0.009 ± 0.021 | -0.0225 ± 0.00071 | -0.0175 ± 0.00071 | -0.0085 ± 0.018 | 0.0265 ± 0.0021 | -0.01 ± 0.02 | -0.0115 ± 0.0064 | 0.008 ± 0.0057 | -0.029 ± 0.0085 | -0.0035 ± 0.012 | 0.0015 ± 0.012
KF3CT:uPA | -0.016 ± 0.013 | -0.011 ± 0.023 | -0.0015 ± 0.0078 | -0.0035 ± 0.013 | -0.014 ± 0.013 | 0.0105 ± 0.044 | -0.0015 ± 0.018 | 0.0005 ± 0.0035 | 0.0145 ± 0.018 | -0.006 ± 0.023 | -0.0215 ± 0.019 | 0.0025 ± 0.022 | 0.0015 ± 0.005 | -0.0115 ± 0.019 | 0.008 ± 0.03
LPS:CD40 | -0.022 ± 0.045 | -0.04 ± 0.024 | -0.0335 ± 0.11 | -0.209 ± 0.024 | 0.0645 ± 0.11 | -0.006 ± 0.15 | -0.044 ± 0.016 | -0.022 ± 0.035 | 0 ± 0.0028 | 0.005 ± 0.068 | -0.045 ± 0.09 | -0.191 ± 0.04 | 0.025 ± 0.048 | 0.0165 ± 0.037 | -0.015 ± 0.024
LPS:CD69 | -0.0355 ± 0.019 | -0.0095 ± 0.026 | 0.0175 ± 0.053 | -0.0365 ± 0.036 | -0.0105 ± 0.033 | 0.037 ± 0.0057 | 0.011 ± 0.1 | 0.033 ± 0.052 | 0.082 ± 0.024 | -0.009 ± 0.013 | -0.061 ± 0.016 | -0.169 ± 0.005 | -0.0315 ± 0.037 | -0.033 ± 0.055 | -0.111 ± 0.057
LPS:CD141/Thrombomodulin | -0.039 ± 0.025 | -0.0465 ± 0.04 | -0.091 ± 0.017 | 0.0505 ± 0.054 | 0.0215 ± 0.023 | -0.024 ± 0.075 | -0.029 ± 0.1 | 0.014 ± 0.076 | 0.0355 ± 0.056 | -0.0155 ± 0.0092 | -0.017 ± 0.017 | -0.0095 ± 0.028 | 0.061 ± 0.03 | 0.065 ± 0.0057 | 0.0475 ± 0.021
LPS:CD142/Tissue Factor | 0.007 ± 0.09 | 0.0765 ± 0.043 | 0.0165 ± 0.098 | -0.107 ± 0.03 | 0.0105 ± 0.07 | 0.036 ± 0.02 | -0.0225 ± 0.077 | -0.004 ± 0.025 | 0.057 ± 0.025 | 0.0095 ± 0.025 | 0.012 ± 0.0085 | 0.022 ± 0.0071 | -0.0015 ± 0.064 | 0.02 ± 0.0085 | 0.0275 ± 0.026
LPS:CXCL8/IL-8 | 0.006 ± 0.014 | 0.023 ± 0.011 | 0.0455 ± 0.015 | -0.0285 ± 0.00071 | 0.026 ± 0.055 | 0.0325 ± 0.005 | -0.0035 ± 0.033 | 0.007 ± 0.0085 | 0.01 ± 0.013 | -0.005 ± 0.0071 | -0.0015 ± 0.013 | -0.034 ± 0.0071 | 0.045 ± 0.013 | 0.072 ± 0.064 | 0.192 ± 0.1
LPS:IL-1alpha | -0.0225 ± 0.079 | -0.0355 ± 0.022 | 0.052 ± 0.0042 | -0.078 ± 0.038 | -0.0655 ± 0.03 | -0.0495 ± 0.047 | 0.0005 ± 0.012 | 0.02 ± 0.017 | -0.0045 ± 0.00071 | -0.0075 ± 0.053 | 0.032 ± 0.013 | 0.0185 ± 0.0078 | 0.007 ± 0.011 | 0.0225 ± 0.023 | 0.037 ± 0.05
MyoF:CD106/VCAM-1 | -0.005 ± 0.037 | -0.0005 ± 0.036 | -0.003 ± 0.0042 | -0.212 ± 0.015 | -0.091 ± 0.0057 | -0.448 ± 0.019 | -0.006 ± 0.021 | 0.026 ± 0.0057 | 0.002 ± 0.0014 | -0.0105 ± 0.021 | -0.0165 ± 0.0021 | -0.0655 ± 0.0078 | -0.003 ± 0.0028 | -0.012 ± 0.0099 | -0.0095 ± 0.005
MyoF:Collagen I | -0.0085 ± 0.0092 | -0.0095 ± 0.00071 | -0.009 ± 0.0099 | -0.0165 ± 0.0035 | -0.0495 ± 0.0021 | -0.339 ± 0.012 | -0.0015 ± 0.015 | 0.009 ± 0.0071 | 0.0135 ± 0.0021 | 0.024 ± 0.013 | 0.0515 ± 0.013 | 0.0495 ± 0.022 | 0.011 ± 0.025 | -0.022 ± 0.016 | 0 ± 0.0085
MyoF:Collagen III | 0.008 ± 0.027 | 0.012 ± 0.0057 | 0.006 ± 0.017 | -0.027 ± 0.013 | -0.0365 ± 0.005 | -0.311 ± 0.093 | 0.0035 ± 0.011 | 0.009 ± 0.0057 | -0.0075 ± 0.025 | 0.009 ± 0.0071 | 0.008 ± 0.0014 | 0.0025 ± 0.0035 | -0.011 ± 0.013 | -0.02 ± 0.017 | -0.0055 ± 0.015
MyoF:PAI-I | -0.0165 ± 0.015 | -0.016 ± 0.0028 | -0.0165 ± 0.005 | -0.0055 ± 0.03 | -0.013 ± 0.016 | -0.075 | -0.008 ± 0.027 | 0.0045 ± 0.0035 | 0.009 ± 0.0042 | 0.021 ± 0.016 | 0.0285 ± 0.021 | 0.0575 ± 0.0078 | -0.0035 ± 0.0021 | -0.011 ± 0.0014 | -0.0035 ± 0.015
MyoF:SRB | -0.0025 ± 0.0092 | -0.0015 ± 0.005 | 0.0085 ± 0.012 | -0.0205 ± 0.0035 | -0.0135 ± 0.00071 | -0.131 ± 0.012 | -0.004 ± 0.0028 | -0.01 ± 0.0042 | -0.0055 ± 0.0078 | -0.0185 ± 0.0035 | -0.054 ± 0.033 | -0.105 ± 0.0092 | -0.002 ± 0.0014 | 0.0005 ± 0.0092 | -0.0015 ± 0.0021
MyoF:alpha-SM Actin | 0.003 ± 0.011 | -0.02 ± 0.038 | -0.0015 ± 0.018 | -0.208 ± 0.024 | -0.115 ± 0.016 | -0.291 ± 0.045 | 0.022 ± 0.061 | 0.0315 ± 0.056 | 0.0385 ± 0.032 | -0.003 ± 0.035 | 0.01 ± 0.033 | 0.004 ± 0.0057 | 0.016 ± 0.018 | 0.001 ± 0.021 | -0.02 ± 0.082
lMphg:CCL2/MCP-1 | -0.005 ± 0.0085 | -0.009 ± 0.0014 | 0.004 ± 0.0071 | -0.048 ± 0.0085 | 0.009 ± 0.0085 | 0.018 ± 0.02 | 0.0185 ± 0.016 | 0.0035 ± 0.0021 | 0.005 ± 0.025 | -0.018 ± 0.054 | -0.053 ± 0.017 | -0.123 ± 0.054 | -0.0195 ± 0.012 | -0.005 ± 0.0099 | 0.027 ± 0.025
lMphg:CD40 | -0.0125 ± 0.016 | 0.0065 ± 0.023 | 0.0235 ± 0.005 | -0.0585 ± 0.015 | -0.0175 ± 0.052 | -0.0365 ± 0.046 | -0.0055 ± 0.0021 | -0.0125 ± 0.0035 | 0.0155 ± 0.00071 | -0.02 ± 0.021 | -0.043 ± 0.031 | -0.146 ± 0.021 | -0.017 ± 0.011 | -0.022 ± 0.028 | -0.05 ± 0.033

— the supplement of paper PMC10331698
